The results in this text go back to US11053242B2, “[9,10-dimethoxy-3-(2-methylpropyl)-1H,2H,3H,4H,6H,7H,11BH-pyrido-[2,1-a]isoquinolin-2-yl]methanol and compounds, compositions and methods relating thereto” (Neurocrine Biosciences, Inc., priority 2015, dated 2021).

pKi: −log10 of the molar value.

In the test the target is VMAT2 (human platelet homogenate) (Homo sapiens (Human), UniProt Q05940). The test can be described thus: Human VMAT2 Ki, slightly modified competition binding procedure (Table 11).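 Further: competition binding with 90 min incubation at 25 °C, after which filter-retained radioligand was measured by scintillation counting.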 The note with it: 10 nM 3H-dihydrotetrabenazine.
VMAT2 (human platelet homogenate), sequence (Q05940 whole entry): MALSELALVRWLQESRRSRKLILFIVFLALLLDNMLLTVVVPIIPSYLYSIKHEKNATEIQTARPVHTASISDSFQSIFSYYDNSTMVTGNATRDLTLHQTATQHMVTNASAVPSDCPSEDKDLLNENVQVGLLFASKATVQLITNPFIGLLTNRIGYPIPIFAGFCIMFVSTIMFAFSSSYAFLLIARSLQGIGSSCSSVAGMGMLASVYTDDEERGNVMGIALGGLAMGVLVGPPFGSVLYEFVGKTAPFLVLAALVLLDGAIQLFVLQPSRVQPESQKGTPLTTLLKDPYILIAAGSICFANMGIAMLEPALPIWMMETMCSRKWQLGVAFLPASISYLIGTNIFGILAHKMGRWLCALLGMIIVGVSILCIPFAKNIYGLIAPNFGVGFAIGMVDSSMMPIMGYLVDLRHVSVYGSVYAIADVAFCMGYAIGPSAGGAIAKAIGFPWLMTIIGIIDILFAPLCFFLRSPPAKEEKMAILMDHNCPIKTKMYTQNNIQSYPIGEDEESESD
Procedure: Following incubation at 25° C. for 90 minutes, bound radioligand was collected by rapid filtration onto GF/B glass fiber filters using a Unifilter-96 Harvester (PerkinElmer). Filter plates were pre-treated with 0.1% polyethylenimine and allowed to dry overnight, and following harvesting the filter plates were washed with 800 d VMAT2 binding buffer. Bound radioligand was quantified by scintillation counting using a Topcount NXT (PerkinElmer).
A word on the pKi: it is the Ki on a negative log10 scale, so that one unit is a factor of ten. A higher pKi goes with a low Ki. Turning to `COc1cc2c(cc1OC)[C@H]1C[C@@H](COC(=O)CCC(N)=O)[C@H](CC(C)C)CN1CC2` [Compound 2-1, [(2R,3S,11bR)-9,10-dimethoxy-3-(2-methylpropyl)-1H,2H,3H,4H,6H,7H,11bH-pyrido[2,1-a]isoquinolin-2-yl]methyl 3-carbamoylpropanoate], the pKi was above 8.00. As to `COc1cc2c(cc1OC)[C@H]1C[C@@H](COC(=O)CCN3CCOCC3)[C@H](CC(C)C)CN1CC2` [Compound 2-2, [(2R,3S,11bR)-9,10-dimethoxy-3-(2-methylpropyl)-1H,2H,3H,4H,6H,7H,11bH-pyrido[2,1-a]isoquinolin-2-yl]methyl 3-(morpholin-4-yl)propanoate], the pKi was above 8.00. For the molecule `COc1cc2c(cc1OC)[C@H]1C[C@@H](COC(=O)CCn3c(=O)[nH]c4ccccc4c3=O)[C@H](CC(C)C)CN1CC2` [Compound 2-3, [(2R,3S,11bR)-9,10-dimethoxy-3-(2-methylpropyl)-1H,2H,3H,4H,6H,7H,11bH-pyrido[2,1-a]isoquinolin-2-yl]methyl 3-(2,4-dioxo-1,2,3,4-tetrahydroquinazolin-3-yl)propanoate], the pKi was above 8.00. The result for `COc1cc2c(cc1OC)[C@H]1C[C@@H](COC(=O)CCC(=O)N(C)C)[C@H](CC(C)C)CN1CC2` [Compound 2-4, [(2R,3S,11bR)-9,10-dimethoxy-3-(2-methylpropyl)-1H,2H,3H,4H,6H,7H,11bH-pyrido[2,1-a]isoquinolin-2-yl]methyl 3-(dimethylcarbamoyl)propanoate] reads above 8.00; that for `CCS(=O)(=O)NCCC(=O)OC[C@@H]1C[C@@H]2c3cc(OC)c(OC)cc3CCN2C[C@H]1CC(C)C` [Compound 2-5, [(2R,3S,11bR)-9,10-dimethoxy-3-(2-methylpropyl)-1H,2H,3H,4H,6H,7H,11bH-pyrido[2,1-a]isoquinolin-2-yl]methyl 3-ethanesulfonamidopropanoate], above 8.00; that for `COc1cc2c(cc1OC)[C@H]1C[C@@H](COC(=O)[C@@H]3CCN(Cc4ccccc4)C3)[C@H](CC(C)C)CN1CC2` [Compound 2-6, [(2R,3S,11bR)-9,10-dimethoxy-3-(2-methylpropyl)-1H,2H,3H,4H,6H,7H,11bH-pyrido[2,1-a]isoquinolin-2-yl]methyl (3R)-1-benzylpyrrolidine-3-carboxylate], above 8.00. The result for `COc1cc2c(cc1OC)[C@H]1C[C@@H](COC(=O)CCN(C)C)[C@H](CC(C)C)CN1CC2` [Compound 2-7, [(2R,3S,11bR)-9,10-dimethoxy-3-(2-methylpropyl)-1H,2H,3H,4H,6H,7H,11bH-pyrido[2,1-a]isoquinolin-2-yl]methyl 3-(dimethylamino)propanoate] reads above 8.00; that for `COc1cc2c(cc1OC)[C@H]1C[C@@H](COC(=O)CN3C[C@@H](C)O[C@@H](C)C3)[C@H](CC(C)C)CN1CC2` [Compound 2-8, [(2R,3S,11bR)-9,10-dimethoxy-3-(2-methylpropyl)-1H,2H,3H,4H,6H,7H,11bH-pyrido[2,1-a]isoquinolin-2-yl]methyl 2-[(2R,6S)-2,6-dimethylmorpholin-4-yl]acetate], above 8.00. For `COc1cc2c(cc1OC)[C@H]1C[C@@H](COC(=O)CC(N)=O)[C@H](CC(C)C)CN1CC2` [Compound 2-9, [(2R,3S,11bR)-9,10-dimethoxy-3-(2-methylpropyl)-1H,2H,3H,4H,6H,7H,11bH-pyrido[2,1-a]isoquinolin-2-yl]methyl 2-carbamoylacetate] the value was above 8.00; for `COc1cc2c(cc1OC)[C@H]1C[C@@H](COC(=O)[C@@H]3CCCN(Cc4ccccc4)C3)[C@H](CC(C)C)CN1CC2` [Compound 2-11, [(2R,3S,11bR)-9,10-dimethoxy-3-(2-methylpropyl)-1H,2H,3H,4H,6H,7H,11bH-pyrido[2,1-a]isoquinolin-2-yl]methyl (3R)-1-benzylpiperidine-3-carboxylate], above 8.00. The molecule `COc1cc2c(cc1OC)[C@H]1C[C@@H](COC(=O)C3CCCN(C)C3)[C@H](CC(C)C)CN1CC2` (stereo partly drawn) [Compound 2-12, [(2R,3S,11bR)-9,10-dimethoxy-3-(2-methylpropyl)-1H,2H,3H,4H,6H,7H,11bH-pyrido[2,1-a]isoquinolin-2-yl]methyl 1-methylpiperidine-3-carboxylate] showed a pKi above 8.00. The result for `COc1cc2c(cc1OC)[C@H]1C[C@@H](COC(=O)CCn3cnnn3)[C@H](CC(C)C)CN1CC2` [Compound 2-13, [(2R,3S,11bR)-9,10-dimethoxy-3-(2-methylpropyl)-1H,2H,3H,4H,6H,7H,11bH-pyrido[2,1-a]isoquinolin-2-yl]methyl 3-(1H-1,2,3,4-tetrazol-1-yl)propanoate] reads above 8.00; that for `COc1cc2c(cc1OC)[C@H]1C[C@@H](COC(=O)CC[N+](=O)[O-])[C@H](CC(C)C)CN1CC2` [Compound 2-14, [(2R,3S,11bR)-9,10-dimethoxy-3-(2-methylpropyl)-1H,2H,3H,4H,6H,7H,11bH-pyrido[2,1-a]isoquinolin-2-yl]methyl 3-nitropropanoate], above 8.00; that for `COc1cc2c(cc1OC)[C@H]1C[C@@H](COC(=O)CCN3CCN(C)CC3)[C@H](CC(C)C)CN1CC2` [Compound 2-15, [(2R,3S,11bR)-9,10-dimethoxy-3-(2-methylpropyl)-1H,2H,3H,4H,6H,7H,11bH-pyrido[2,1-a]isoquinolin-2-yl]methyl 3-(4-methylpiperazin-1-yl)propanoate], above 8.00. For `COc1cc2c(cc1OC)[C@H]1C[C@@H](COC(=O)CCNS(=O)(=O)C(C)C)[C@H](CC(C)C)CN1CC2` [Compound 2-16, [(2R,3S,11bR)-9,10-dimethoxy-3-(2-methylpropyl)-1H,2H,3H,4H,6H,7H,11bH-pyrido[2,1-a]isoquinolin-2-yl]methyl 3-(propane-2-sulfonamido)propanoate] the value was above 8.00; for `COc1cc2c(cc1OC)[C@H]1C[C@@H](COC(=O)C(C)(C)C)[C@H](CC(C)C)CN1CC2` [Compound 2-17, [(2R,3S,11bR)-9,10-dimethoxy-3-(2-methylpropyl)-1H,2H,3H,4H,6H,7H,11bH-pyrido[2,1-a]isoquinolin-2-yl]methyl 2,2-dimethylpropanoate], 6.30 to 8.00; for `COc1cc2c(cc1OC)[C@H]1C[C@@H](COC(=O)C3(C)COC3)[C@H](CC(C)C)CN1CC2` [Compound 2-18, [(2R,3S,11bR)-9,10-dimethoxy-3-(2-methylpropyl)-1H,2H,3H,4H,6H,7H,11bH-pyrido[2,1-a]isoquinolin-2-yl]methyl 3-methyloxetane-3-carboxylate], above 8.00.

`COc1cc2c(cc1OC)[C@H]1C[C@@H](COC(=O)CCN3CCCCC3)[C@H](CC(C)C)CN1CC2` [Compound 2-19, [(2R,3S,11bR)-9,10-dimethoxy-3-(2-methylpropyl)-1H,2H,3H,4H,6H,7H,11bH-pyrido[2,1-a]isoquinolin-2-yl]methyl 3-(piperidin-1-yl)propanoate] had a negative-log Ki (pKi) above 8.00. The result for `COc1cc2c(cc1OC)[C@H]1C[C@@H](COC(=O)C3CN(Cc4ccccc4)C3)[C@H](CC(C)C)CN1CC2` [Compound 2-21, [(2R,3S,11bR)-9,10-dimethoxy-3-(2-methylpropyl)-1H,2H,3H,4H,6H,7H,11bH-pyrido[2,1-a]isoquinolin-2-yl]methyl 1-benzylazetidine-3-carboxylate] reads above 8.00; that for `COc1cc2c(cc1OC)[C@H]1C[C@@H](COC(=O)C3CCOCC3)[C@H](CC(C)C)CN1CC2` [Compound 2-22, [(2R,3S,11bR)-9,10-dimethoxy-3-(2-methylpropyl)-1H,2H,3H,4H,6H,7H,11bH-pyrido[2,1-a]isoquinolin-2-yl]methyl oxane-4-carboxylate], above 8.00; that for `COc1cc2c(cc1OC)[C@H]1C[C@@H](COC(=O)CCn3ccc(C)n3)[C@H](CC(C)C)CN1CC2` [Compound 2-23, [(2R,3S,11bR)-9,10-dimethoxy-3-(2-methylpropyl)-1H,2H,3H,4H,6H,7H,11bH-pyrido[2,1-a]isoquinolin-2-yl]methyl 3-(3-methyl-1H-pyrazol-1-yl)propanoate], above 8.00.

In the case of `COc1cc2c(cc1OC)[C@H]1C[C@@H](COC(=O)C(C)(C)O)[C@H](CC(C)C)CN1CC2` [Compound 2-24, [(2R,3S,11bR)-9,10-dimethoxy-3-(2-methylpropyl)-1H,2H,3H,4H,6H,7H,11bH-pyrido[2,1-a]isoquinolin-2-yl]methyl 2-hydroxy-2-methylpropanoate], the pKi is 6.30 to 8.00.

For `COc1cc2c(cc1OC)[C@H]1C[C@@H](COC(=O)[C@H]3CCN(Cc4ccccc4)C3)[C@H](CC(C)C)CN1CC2` [Compound 2-26, [(2R,3S,11bR)-9,10-dimethoxy-3-(2-methylpropyl)-1H,2H,3H,4H,6H,7H,11bH-pyrido[2,1-a]isoquinolin-2-yl]methyl (3S)-1-benzylpyrrolidine-3-carboxylate], the pKi is above 8.00.

On to `COc1cc2c(cc1OC)C1CC(COC(=O)C3CC(C)(C)N([O])C3(C)C)C(CC(C)C)CN1CC2` [Compound 2-27, [3-({[(2R,3S,11bR)-9,10-dimethoxy-3-(2-methylpropyl)-1H,2H,3H,4H,6H,7H,11bH-pyrido[2,1-a]isoquinolin-2-yl]methoxy}carbonyl)-2,2,5,5-tetramethylpyrrolidin-1-yl]oxidanyl], for which the pKi was 6.30 to 8.00. Consider `COc1cc2c(cc1OC)[C@H]1C[C@@H](COC(=O)CC(C)(C)n3cccc3)[C@H](CC(C)C)CN1CC2` [Compound 2-28, [(2R,3S,11bR)-9,10-dimethoxy-3-(2-methylpropyl)-1H,2H,3H,4H,6H,7H,11bH-pyrido[2,1-a]isoquinolin-2-yl]methyl 3-methyl-3-(1H-pyrrol-1-yl)butanoate], for which the pKi was 6.30 to 8.00.

In turn, `COc1cc2c(cc1OC)[C@H]1C[C@@H](COC(=O)CCn3nccc3C)[C@H](CC(C)C)CN1CC2` [Compound 2-29, [(2R,3S,11bR)-9,10-dimethoxy-3-(2-methylpropyl)-1H,2H,3H,4H,6H,7H,11bH-pyrido[2,1-a]isoquinolin-2-yl]methyl 3-(5-methyl-1H-pyrazol-1-yl)propanoate] had a pKi of 6.30 to 8.00. The result for `COc1cc2c(cc1OC)[C@H]1C[C@@H](COC(=O)CC3NC(=O)NC3=O)[C@H](CC(C)C)CN1CC2` (stereo partly drawn) [Compound 2-30, [(2R,3S,11bR)-9,10-dimethoxy-3-(2-methylpropyl)-1H,2H,3H,4H,6H,7H,11bH-pyrido[2,1-a]isoquinolin-2-yl]methyl 2-(2,5-dioxoimidazolidin-4-yl)acetate] reads above 8.00.
